{
  "source": "patent US11565022B2",
  "about": "“Therapy for post-traumatic osteoarthritis” (University of Iowa Research Foundation, priority 2015, dated 2023)",
  "test_system": "complex I of the electron transport chain in chondrocytes",
  "test": "complex I activity in the presence or absence of amobarbital (FIG. 4)",
  "assay_type": "biochemical",
  "data": [
    {"smiles": "CCC1(CCC(C)C)C(=O)NC(=O)NC1=O", "note": "[amobarbital]", "values": [
      {"measurement": "biochemical activity of complex I of the electron transport chain", "result": "directly inhibits"}
    ]}
  ]
}
